According to ChEMBL document CHEMBL1136350, “Design and synthesis of orally active inhibitors of TNF synthesis as anti-rheumatoid arthritis drugs” (Bioorg Med Chem Lett, 2003):
Each block holds one compound with its values, some of them ahead of it.

Columns and labels:
MONO-MAC-6 = assay: Inhibitory activity against monomac6 (MM6) human monocytic cell line; assay type: functional, cell-based
[1] = Area under curve was determined in rat after oral administration at a concentration 30 mg/kg; assay type: ADME, organism-based; parameters: dose 30 mg/kg, route oral; settings: in vivo
Rattus norvegicus = assay: Area under curve was determined in rat after oral administration at a concentration 30 mg/kg; NA= Not active; assay type: ADME, organism-based; parameters: dose 30 mg/kg, route oral; settings: in vivo
[2] = Cmax in rat plasma after 30mg/kg oral dose; assay type: ADME, organism-based; parameters: dose 30 mg/kg, route oral
[3] = Cmax in dog plasma after 30mg/kg oral dose; assay type: ADME, organism-based, Canis lupus familiaris; parameters: dose 30 mg/kg, route oral
Mus musculus [4] = assay: Number of positive paws that was inflamed by murine collagen -induced arthritis(MCIA) in mice after peroral administration 13 day at a concentration 15 mg/kg; assay type: functional; settings: route oral
Mus musculus [5] = assay: Number of positive paws that was inflamed by murine collagen -induced arthritis(MCIA) in mice after peroral administration 13 day at a concentration 2 mg/kg; assay type: functional; settings: route oral
Mus musculus [6] = assay: Inhibition of murine collagen -induced arthritis(MCIA) in mice after peroral administration at a concentration 2 mg/kg; assay type: functional; settings: route oral
Mus musculus [7] = assay: Number of positive paws that was inflamed by murine collagen -induced arthritis(MCIA) in mice after peroral administration 13 day at a concentration 45 mg/kg; assay type: functional; settings: route oral
[8] = Plasma concentration in rats after 7 hr at 30mg/kg oral dose; assay type: ADME, organism-based; settings: rat, read-out: Conc_plasma
Mus musculus [9] = assay: Number of positive paws that was inflamed by murine collagen -induced arthritis(MCIA) in mice after peroral administration 13 day at a concentration 5 mg/kg; assay type: functional; settings: route oral
Mus musculus [10] = assay: Reduction of murine collagen -induced arthritis(MCIA) in mice after peroral administration at a concentration 5 mg/kg; assay type: functional; settings: route oral
Mus musculus [11] = assay: Number of paws at risk inflamed by murine collagen -induced arthritis(MCIA) in mice after peroral administration at a concentration 120 mg/kg; assay type: functional; settings: route oral
Mus musculus [12] = assay: Number of paws at risk inflamed by murine collagen -induced arthritis(MCIA) in mice after peroral administration at a concentration 15 mg/kg; assay type: functional; settings: route oral
Mus musculus [13] = assay: Inhibition of murine collagen -induced arthritis(MCIA) in mice after peroral administration at a concentration 5 mg/kg; assay type: functional; settings: route oral
Mus musculus [14] = assay: Reduction of murine collagen -induced arthritis(MCIA) in mice after peroral administration at a concentration 2 mg/kg; assay type: functional; settings: route oral
Mus musculus [15] = assay: Number of paws at risk inflamed by murine collagen -induced arthritis(MCIA) in mice after peroral administration at a concentration 2 mg/kg; assay type: functional; settings: route oral
Mus musculus [16] = assay: Number of paws at risk inflamed by murine collagen -induced arthritis(MCIA) in mice after peroral administration at a concentration 45 mg/kg; assay type: functional; settings: route oral
Mus musculus [17] = assay: Number of paws at risk inflamed by murine collagen -induced arthritis(MCIA) in mice after peroral administration at a concentration 5 mg/kg; assay type: functional; settings: route oral
Mus musculus [18] = assay: Inhibition of murine collagen -induced arthritis(MCIA) in mice after peroral administration at a concentration 120 mg/kg; assay type: functional; settings: route oral
Mus musculus [19] = assay: Inhibition of murine collagen -induced arthritis(MCIA) in mice after peroral administration at a concentration 45 mg/kg; assay type: functional; settings: route oral
Mus musculus [20] = assay: Reduction of murine collagen -induced arthritis(MCIA) in mice after peroral administration at a concentration 45 mg/kg; assay type: functional; settings: route oral
Mus musculus [21] = assay: Reduction of murine collagen -induced arthritis(MCIA) in mice after peroral administration at a concentration 15 mg/kg; assay type: functional; settings: route oral
[22] = Plasma concentration in dogs after 2 hr at 30mg/kg oral dose; assay type: ADME, organism-based, Canis lupus familiaris; settings: dog, read-out: Conc_plasma
Mus musculus [23] = assay: Number of positive paws that was inflamed by murine collagen -induced arthritis(MCIA) in mice after peroral administration 13 day at a concentration 120 mg/kg; assay type: functional; settings: route oral
Mus musculus [24] = assay: Inhibition of murine collagen -induced arthritis(MCIA) in mice after peroral administration at a concentration 15 mg/kg; assay type: functional; settings: route oral
Mus musculus [25] = assay: Reduction of murine collagen -induced arthritis(MCIA) in mice after peroral administration at a concentration 120 mg/kg; assay type: functional; settings: route oral

SMILES: O=C(NO)[C@H]1CN(CC(F)(F)F)CCN1S(=O)(=O)N1CC=C(c2ccc(F)cc2)CC1
AUC [1]: 3260 ng·h/mL
IC50 (MONO-MAC-6; Homo sapiens, MONO-MAC-6): 300 nM

SMILES: O=C(NO)[C@H]1CCCCN1S(=O)(=O)N1CC=C(c2ccccc2)CC1
IC50 (MONO-MAC-6; Homo sapiens, MONO-MAC-6): 240 nM

SMILES: CCc1cccc(C2=CCN(S(=O)(=O)N3CCCC[C@@H]3C(=O)NO)CC2)c1
IC50 (MONO-MAC-6; Homo sapiens, MONO-MAC-6): 320 nM

SMILES: C[C@@H](NS(=O)(=O)N1CC=C(c2ccc(Cl)cc2)CC1)C(=O)NO
IC50 (MONO-MAC-6; Homo sapiens, MONO-MAC-6): 1240 nM

SMILES: O=C(NO)[C@H]1CCCCN1S(=O)(=O)N1CC=C(c2cccc(-c3ccccc3)c2)CC1
IC50 (MONO-MAC-6; Homo sapiens, MONO-MAC-6): 7600 nM

SMILES: C[C@@H](NS(=O)(=O)N1CCC(c2ccc(Cl)cc2)CC1)C(=O)NO
IC50 (MONO-MAC-6; Homo sapiens, MONO-MAC-6): 5800 nM

SMILES: CN(C)C(=O)N1CCN(S(=O)(=O)N2CC=C(c3ccc(F)cc3)CC2)[C@@H](C(=O)NO)C1
Positive paws (Mus musculus [4]): 41%
Positive paws (Mus musculus [5]): 27%
Max score (Mus musculus [6]): 2.9
Positive paws (Mus musculus [7]): 33%
concentration at 7 h [8]: 233 ng/mL
Positive paws (Mus musculus [9]): 30%
inhibition in vivo at 5 mg/kg (Mus musculus [10]): 69%
Severity (Mus musculus [11]): 1
Severity (Mus musculus [12]): 2.8
Max score (Mus musculus [13]): 2.7
AUC [1]: 6180 ng·h/mL
inhibition in vivo at 2 mg/kg (Mus musculus [14]): 67%
Severity (Mus musculus [15]): 2.7
Severity (Mus musculus [16]): 2.9
Cmax [2]: 1050 ng/mL
Severity (Mus musculus [17]): 2.4
Max score (Mus musculus [18]): 0.3
IC50 (MONO-MAC-6; Homo sapiens, MONO-MAC-6): 200 nM
Cmax [3]: 182 ng/mL
Max score (Mus musculus [19]): 3.8
inhibition in vivo at 45 mg/kg (Mus musculus [20]): 56%
inhibition in vivo at 15 mg/kg (Mus musculus [21]): 49%
concentration at 2 h [22]: 110 ng/mL
Positive paws (Mus musculus [23]): 4%
Max score (Mus musculus [24]): 4.5
inhibition in vivo at 120 mg/kg (Mus musculus [25]): 96%

SMILES: O=C(NO)[C@H]1CN(C(=O)N2CCOCC2)CCN1S(=O)(=O)N1CC=C(c2ccc(F)cc2)CC1
AUC [1]: 7940 ng·h/mL
IC50 (MONO-MAC-6; Homo sapiens, MONO-MAC-6): 350 nM

SMILES: O=C(NO)[C@H]1CCCCN1S(=O)(=O)N1CC=C(c2ccc(Oc3ccccc3)cc2)CC1
IC50 (MONO-MAC-6; Homo sapiens, MONO-MAC-6): 3300 nM

SMILES: CN(C)S(=O)(=O)N1CCN(S(=O)(=O)N2CC=C(c3ccc(F)cc3)CC2)[C@@H](C(=O)NO)C1
AUC [1]: 3270 ng·h/mL
IC50 (MONO-MAC-6; Homo sapiens, MONO-MAC-6): 250 nM

SMILES: O=C(NO)[C@H]1CCCCN1S(=O)(=O)N1CC=C(c2ccc(-c3ccccc3)cc2)CC1
IC50 (MONO-MAC-6; Homo sapiens, MONO-MAC-6): 19000 nM

SMILES: CN(C)P(=O)(N(C)C)N1CCN(S(=O)(=O)N2CC=C(c3ccc(F)cc3)CC2)[C@@H](C(=O)NO)C1
AUC [1]: 1540 ng·h/mL
IC50 (MONO-MAC-6; Homo sapiens, MONO-MAC-6): 510 nM

SMILES: CNC(=O)N1CCN(S(=O)(=O)N2CC=C(c3ccc(F)cc3)CC2)[C@@H](C(=O)NO)C1
AUC [1]: 1790 ng·h/mL
IC50 (MONO-MAC-6; Homo sapiens, MONO-MAC-6): 120 nM

SMILES: COc1cccc(C2=CCN(S(=O)(=O)N3CCCC[C@@H]3C(=O)NO)CC2)c1
IC50 (MONO-MAC-6; Homo sapiens, MONO-MAC-6): 260 nM

The remaining lines, values ahead:

IC50 (MONO-MAC-6; Homo sapiens, MONO-MAC-6): 15000 nM
SMILES: COc1ccc(C2=CCN(S(=O)(=O)N3CCCC[C@@H]3C(=O)NO)CC2)cc1

IC50 (MONO-MAC-6; Homo sapiens, MONO-MAC-6): 2600 nM
SMILES: CCCc1ccc(C2=CCN(S(=O)(=O)N3CCCC[C@@H]3C(=O)NO)CC2)cc1

IC50 (MONO-MAC-6; Homo sapiens, MONO-MAC-6): 1200 nM
SMILES: O=C(NO)[C@H]1CCCCN1S(=O)(=O)N1CC=C(c2ccc(F)c(F)c2)CC1

IC50 (MONO-MAC-6; Homo sapiens, MONO-MAC-6): 1200 nM
SMILES: O=C(NO)[C@H]1CCCCN1S(=O)(=O)N1CC=C(c2ccc(Br)cc2)CC1

AUC (Rattus norvegicus): Not Active
IC50 (MONO-MAC-6; Homo sapiens, MONO-MAC-6): 3560 nM
SMILES: O=C(NO)[C@H]1CNCCN1S(=O)(=O)N1CC=C(c2ccc(F)cc2)CC1

Cmax [2]: 3060 ng/mL
IC50 (MONO-MAC-6; Homo sapiens, MONO-MAC-6): 300 nM
Cmax [3]: 117 ng/mL
SMILES: O=C(NO)[C@H]1CCCCN1S(=O)(=O)N1CC=C(c2ccc(F)cc2)CC1

IC50 (MONO-MAC-6; Homo sapiens, MONO-MAC-6): 430 nM
SMILES: O=C(NO)[C@H]1CCCCN1S(=O)(=O)N1CC=C(c2ccc(Cl)cc2)CC1 (stereo in doubt; 3)

IC50 (MONO-MAC-6; mono-mac-6): 480 nM
SMILES: O=C(NO)[C@H]1CCCCN1S(=O)(=O)N1CC=C(c2ccc(Cl)cc2)CC1 (stereo in doubt; 6)
